What all share (assay): NCI anticancer screen, dose series, 48 h
Assay [1] deals with EKVX NSCLC.
Assay [2] concerns SF-539 CNS.
Assay [3] relates to OVCAR-5 ovarian.
In assay [4] the test system is 786-0 renal.
For assay [5], the system named is KM12 colon.
Assay [6] concerns NCI-H522 lung.
For assay [7], the system named is MALME-3M melanoma.
Assay [8] concerns HCT-15 colon.
Assay [9] relates to COLO 205 colon.
In assay [10] the test system is HCT-116 colon.

Experimental findings from PubChem BioAssay (NCI) are described below.

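Growth conditions: 96-well plates. Treatment: test compound, 48 hours, 5 concentrations. Analysis: linear interpolation between bracketing concentrations; unreached endpoints set to highest concentration. GI50 marks 50% less growth. The concentration for full growth arrest is given as TGI.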 Bounds are passed on as bounds.

For the compound `COc1cc(Cn2c(-c3ccccc3)cc3c2-c2oncc2CC3)cc(OC)c1OC`, the GI50 in [1] was 1390 nM; in [2], 735 nM; in assay [3], 6.46 µM; in assay [4], 1520 nM; in assay [5], 0.585 µM; in [6] it was 294 nM. For the same compound, the GI50 in [7] was 18.4 µM; in assay [8] it was 640 nM; in [9] it was 696 nM; in assay [10], 0.464 µM. For the same compound, the TGI is over 100 µM in assay [1]; 10.3 µM in assay [2]; over 100 µM in [3]; 39.8 µM in assay [4]; 22.8 µM in assay [5]; 5.99 µM in assay [6]. The TGI is 84.4 µM in [7], over 100 µM in assay [8], 3.13 µM in assay [9] and 91.7 µM in assay [10].
Turning to `CCC1(O)C(=O)OCc2c1cc1n(c2=O)Cc2cc3c(N)cccc3nc2-1` (configuration not stated), the TGI in assay [1] came out at 30.3 µM; in assay [2], 0.0409 µM; in [3], 2.67 µM; in [4], 0.0893 µM; in assay [5] it was 20 µM; in assay [6], 0.763 µM. The TGI in assay [7] worked out at 5.67 µM; in [8], 25.2 µM; in assay [9], 6.41 µM; in [10], 0.735 µM. In addition, the GI50 in assay [3] was 0.106 µM; in [6], 23.1 nM.
For `COc1ccc(-n2cc(-c3cc(OC)c(OC)c(OC)c3)[nH]c2=S)cc1OC`, the GI50 in assay [1] is over 100000 nM; in [2], over 100000 nM; in assay [3], over 100 µM; in assay [4] it was over 100000 nM; in [5] it was over 100 µM; in assay [6], over 100000 nM. For the same compound, the GI50 in [7] was over 100 µM; in assay [8], over 100000 nM; in assay [9] it was over 100000 nM; in assay [10] it was over 100 µM. Further, the TGI in assay [1], in assay [2], in assay [3], in assay [4], in assay [5] and in [6] was over 100 µM each time. Further, the TGI in [7], in [8], in assay [9] and in assay [10] was over 100 µM each time.
Consider `COc1cc([C@@H]2c3cc4c(cc3C(O[C@@H]3O[C@@H]5CO[C@@H](c6cccs6)OC5[C@H](O)[C@H]3O)C3COC(=O)[C@@H]32)OCO4)cc(OC)c1O` (some centres not stated), for which the GI50 is 677 nM in assay [1]; 26.8 nM in [2]; 0.382 µM in assay [3]; 33.6 nM in [4]; 0.118 µM in assay [5]; 36.9 nM in assay [6]. For the same compound, the GI50 in assay [7] is 0.0768 µM; in [8] it was 499 nM; in [9] it was 98.4 nM; in [10], 0.0721 µM. Also, the TGI stood at 14.4 µM in assay [1]; 0.199 µM in assay [2]; 5.3 µM in assay [3]; 0.216 µM in [4]; 0.796 µM in assay [5]; 0.396 µM in assay [6]. Besides, the TGI in [7] came to 1.02 µM; in assay [8] it was 19.4 µM; in assay [9], 0.809 µM; in assay [10] it was 1.28 µM.
With `CC(=O)c1ccc(NC(=O)/C(Cc2ccccn2)=N/NC(=O)C[N+](C)(C)C)cc1`, the TGI in [1], in assay [2], in [3], in [4], in assay [5] and in assay [6] was over 100 µM throughout. Also, the TGI in [7], in assay [8], in assay [9] and in assay [10] was over 100 µM throughout.
Take `NC(N)=NC(N)=Nc1cc2ccccc2c2ccccc12`: the GI50 was 12000 nM in [1]; 10600 nM in [2]; 11 µM in [3]; 7230 nM in [4]; 12.3 µM in [5]; 5660 nM in [6]. In addition, the GI50 in [7] is 7.16 µM; in assay [8] it was 14900 nM; in assay [9], 1840 nM; in assay [10], 5.33 µM. In addition, the TGI worked out at 29.1 µM in assay [1]; 23.5 µM in assay [2]; 24.3 µM in assay [3]; 22.5 µM in [4]; 27.2 µM in [5]; 21.5 µM in assay [6]. The TGI in assay [7] is 22.1 µM; in [8], 30.5 µM; in assay [9] it was 4.49 µM; in [10], 18.3 µM.
Take `COc1cc(Cc2cc(OC)c(OC)c(OC)c2)ccc1O`: the TGI in assay [1] is over 100 µM; in assay [2], 56.2 µM; in assay [3], over 100 µM; in assay [4], over 100 µM; in assay [5], over 100 µM; in assay [6], 39.5 µM. Further, the TGI is 12 µM in assay [7], over 100 µM in assay [8], over 100 µM in [9] and over 100 µM in assay [10].
For `CC(=O)[O][Hg][c]1c(C)c(C)c(C)c(C)c1C`, the GI50 was 1890 nM in assay [1]; 1660 nM in assay [2]; 3.33 µM in assay [3]; 1650 nM in [4]; 4.06 µM in [5]; 1410 nM in assay [6]. Further, the GI50 in assay [7] is 1.24 µM; in assay [8], 1380 nM; in assay [9] it was 2700 nM; in assay [10], 3.38 µM. The TGI is 3.54 µM in [1]; 3.25 µM in [2]; 8.74 µM in [3]; 3.03 µM in assay [4]; 15.3 µM in assay [5]; 3.02 µM in assay [6]. The TGI amounted to 2.62 µM in [7], 2.93 µM in assay [8], 7.14 µM in assay [9] and 11.8 µM in assay [10].
